Publication PMC6001238, “Iterative Chemical Engineering of Vancomycin Leads to Novel Vancomycin Analogs With a High in Vitro Therapeutic Index” (Frontiers in Microbiology, 2018)
Converted amounts (≈) assume the structure as drawn.

What was measured:
[1] = tested on: E. faecalis VRE 53; assay: MIC, broth microdilution, vancomycin-resistant E. faecalis VRE 53 (VanA); format: cell-based, Enterococcus faecalis; conditions: for MIC: Enterococcus faecalis VRE 53 (vancomycin-resistant), read-out: MIC; for MIC-fold improvement vs. vancomycin: VRE 53, ratio of MIC of vancomycin and MIC of analogue
Protocol: (§1) The minimum inhibitory concentration (MIC) was determined using the broth microdilution method according to the antimicrobial susceptibility testing standards of the clinical and laboratory standards institute ([Clinical and Laboratory Standards Institute [CLSI], 2012]). Ultrapure water and non-inoculated broth were used as controls. In one case, a final concentration of 10 μM vancomycin was included with the vancomycin analog or control antibiotic.

[2] = tested on: E. faecalis VRE 37; assay: MIC, broth microdilution, vancomycin-resistant E. faecalis VRE 37 (VanA); format: cell-based, Enterococcus faecalis; conditions: for MIC: Enterococcus faecalis VRE 37 (vancomycin-resistant), read-out: MIC; for MIC-fold improvement vs. vancomycin: VRE 37, ratio of MIC of vancomycin and MIC of analogue
Protocol: as §1

[3] = tested on: L1210, CEM and HeLa cell lines; assay: Cytostatic activity, average or summary over L1210, CEM and HeLa; format: cell-based; conditions: average of L1210, CEM and HeLa; read-out: Toxicity (IC50) Average
Protocol: (§2) Murine leukemia (L1210), human T-lymphocyte (CEM) and the human cervix carcinoma (HeLa) cell line were suspended at 300,000–500,000 cells/mL of culture medium, and 100 μL of a cell suspension was added to 100 μL of an appropriate dilution of the test compounds in wells of 96-well microtiter plates. After incubation at 37°C for 2 (L1210), 3 (CEM), or 4 (HeLa) days, the cell number was determined using a Coulter counter. The IC50 was defined per cell type as the compound concentration required to inhibit cell proliferation by 50% compared to the negative control ([Glowacka et al., 2017]).

[4] = tested on: human cervix carcinoma (HeLa) cells; assay: Cytostatic activity, HeLa cell proliferation; format: cell-based; conditions: mean ± SD of three experiments; highest concentration tested 250 µM; 4 days; read-out: Toxicity (IC50) HeLa
Protocol: as §2

[5] = tested on: S. aureus VISA/HIP5827; assay: MIC, broth microdilution, vancomycin-intermediate S. aureus VISA HIP5827; format: cell-based, Staphylococcus aureus; conditions: for MIC: Staphylococcus aureus VISA/HIP5827, read-out: MIC; for MIC-fold improvement vs. vancomycin: VISA/HIP5827, ratio of MIC of vancomycin and MIC of analogue
Protocol: as §1

[6] = tested on: human T-lymphocyte (CEM) cells; assay: Cytostatic activity, CEM cell proliferation; format: cell-based; conditions: mean ± SD of three experiments; highest concentration tested 250 µM; 3 days; read-out: Toxicity (IC50) CEM
Protocol: as §2

[7] = tested on: E. faecalis VRE 6; assay: MIC, broth microdilution, vancomycin-resistant E. faecalis VRE 6 (VanA); format: cell-based, Enterococcus faecalis; conditions: for MIC: Enterococcus faecalis VRE 6 (vancomycin-resistant), read-out: MIC; for MIC-fold improvement vs. vancomycin: VRE 6, ratio of MIC of vancomycin and MIC of analogue
Protocol: as §1

[8] = tested on: E. faecalis VRE 29; assay: MIC, broth microdilution, vancomycin-resistant E. faecalis VRE 29 (VanA); format: cell-based, Enterococcus faecalis; conditions: for MIC: Enterococcus faecalis VRE 29 (vancomycin-resistant), read-out: MIC; for MIC-fold improvement vs. vancomycin: VRE 29, ratio of MIC of vancomycin and MIC of analogue
Protocol: as §1

[9] = tested on: S. aureus VRSA; assay: MIC, broth microdilution, vancomycin-resistant S. aureus (VRSA); format: cell-based, Staphylococcus aureus; conditions: for MIC: Staphylococcus aureus VRSA, read-out: MIC; for MIC-fold improvement vs. vancomycin: VRSA, ratio of MIC of vancomycin and MIC of analogue
Protocol: as §1

[10] = tested on: Murine leukemia (L1210) cells; assay: Cytostatic activity, L1210 cell proliferation; format: cell-based; conditions: mean ± SD of three experiments; highest concentration tested 250 µM; 2 days; read-out: Toxicity (IC50) L1210
Protocol: as §2

[11] = tested on: E. faecalis VSE 1; assay: MIC, broth microdilution, vancomycin-sensitive E. faecalis (VSE 1); format: cell-based, Enterococcus faecalis; conditions: for MIC: Enterococcus faecalis VSE 1 (vancomycin-sensitive), read-out: MIC; for MIC-fold improvement vs. vancomycin: VSE 1, ratio of MIC of vancomycin and MIC of analogue
Protocol: as §1

[12] = tested on: S. aureus VSSA (ATCC 6538); assay: MIC, broth microdilution, vancomycin-sensitive S. aureus (VSSA/MSSA, ATCC 6538); format: cell-based, Staphylococcus aureus; conditions: for MIC: Staphylococcus aureus VSSA, read-out: MIC; for MIC-fold improvement vs. vancomycin: VSSA, ratio of MIC of vancomycin and MIC of analogue
Protocol: as §1

[13] = tested on: MRSA KS89; assay: MIC, broth microdilution, MRSA KS89; format: cell-based, Staphylococcus aureus; conditions: for MIC-fold improvement vs. vancomycin: MRSA KS8, ratio of MIC of vancomycin and MIC of analogue; for MIC: Staphylococcus aureus MRSA KS8, read-out: MIC
Protocol: as §1

Row | Compound | MIC [1] [µM] | MIC-fold improvement vs. vancomycin [1] | MIC [2] [µM] | MIC-fold improvement vs. vancomycin [2] | IC50 [3] [µM] | IC50 [4] [µM] | MIC [5] [µM] | MIC-fold improvement vs. vancomycin [5] | IC50 [6] [µM] | MIC [7] [µM] | MIC-fold improvement vs. vancomycin [7] | MIC [8] [µM] | MIC-fold improvement vs. vancomycin [8] | MIC [9] [µM] | MIC-fold improvement vs. vancomycin [9] | IC50 [10] [µM] | MIC [11] [µM] | MIC-fold improvement vs. vancomycin [11] | MIC [12] [µM] | MIC-fold improvement vs. vancomycin [12] | also measured
1 | CCCC#Cc1ccc(NC(=O)CNC(=O)C2NC(=O)C3NC(=O)C(NC(=O)C4NC(=O)C(CC(N)=O)NC(=O)C(NC(=O)C(CC(C)C)NC)C(O)c5ccc(c(Cl)c5)Oc5cc4cc(c5OC4OC(CO)C(O)C(O)C4OC4CC(C)(N)C(O)C(C)O4)Oc4ccc(cc4Cl)C3O)c3ccc(O)c(c3)-c3c(O)cc(O)cc32)cc1 (stereo not drawn) [Vanc-68] | 3.13 (≈ 5.16 µg/mL) | 128 | 3.13 (≈ 5.16 µg/mL) | 128 | 39 | 55 ± 20 | 0.39 (≈ 0.643 µg/mL) | 16 | 19 ± 1 | 3.13 (≈ 5.16 µg/mL) | 64 | 3.13 (≈ 5.16 µg/mL) | 128 | 1.56 (≈ 2.57 µg/mL) | 64 | 42 ± 14 | 0.78 (≈ 1.29 µg/mL) | 2 | 0.78 (≈ 1.29 µg/mL) | 1 | 
2 | CNC(CC(C)C)C(=O)NC1C(=O)NC(CC(N)=O)C(=O)NC2C(=O)NC3C(=O)NC(C(=O)NC(C(=O)NCC(=O)Nc4ccc(-c5cnnn5C5OC(COC(C)=O)C(OC(C)=O)C(OC(C)=O)C5OC(C)=O)cc4)c4cc(O)cc(O)c4-c4cc3ccc4O)C(O)c3ccc(c(Cl)c3)Oc3cc2cc(c3OC2OC(CO)C(O)C(O)C2OC2CC(C)(N)C(O)C(C)O2)Oc2ccc(cc2Cl)C1O (stereo not drawn) [Vanc-78] | 50 (≈ 98.9 µg/mL) | 8 | 50 (≈ 98.9 µg/mL) | 8 | 186 | 57 ± 32 | 3.13 (≈ 6.19 µg/mL) | 2 | > 250 | 3.13 (≈ 6.19 µg/mL) | 64 | 50 (≈ 98.9 µg/mL) | 8 | 3.13 (≈ 6.19 µg/mL) | 32 | > 250 | 0.78 (≈ 1.54 µg/mL) | 2 | 0.78 (≈ 1.54 µg/mL) | 1 | MIC-fold improvement vs. vancomycin [13]: 1; MIC [13]: 0.78 µM (≈ 1.54 µg/mL)
3 | CCCCC[N+](C)(C)CCCNC(=O)c1ccc(NC(=O)CNC(=O)C2NC(=O)C3NC(=O)C(NC(=O)C4NC(=O)C(CC(N)=O)NC(=O)C(NC(=O)C(CC(C)C)NC)C(O)c5ccc(c(Cl)c5)Oc5cc4cc(c5OC4OC(CO)C(O)C(O)C4OC4CC(C)(N)C(O)C(C)O4)Oc4ccc(cc4Cl)C3O)c3ccc(O)c(c3)-c3c(O)cc(O)cc32)cc1 (stereo not drawn) [Vanc-80] | 50 | 8 | 50 | 8 | 239 | 238 | 6.25 | 1 | > 250 | 6.25 | 32 | 50 | 8 | 1.56 | 64 | 230 ± 3 | 1.56 | 1 | 0.78 | 1 | MIC-fold improvement vs. vancomycin [13]: 1; MIC [13]: 0.78 µM
4 | CCCCCCCC[N+](C)(C)CCCNC(=O)c1ccc(NC(=O)CNC(=O)C2NC(=O)C3NC(=O)C(NC(=O)C4NC(=O)C(CC(N)=O)NC(=O)C(NC(=O)C(CC(C)C)NC)C(O)c5ccc(c(Cl)c5)Oc5cc4cc(c5OC4OC(CO)C(O)C(O)C4OC4CC(C)(N)C(O)C(C)O4)Oc4ccc(cc4Cl)C3O)c3ccc(O)c(c3)-c3c(O)cc(O)cc32)cc1 (stereo not drawn) [Vanc-81] | 25 | 16 | 25 | 16 | 179 | 122 ± 13 | 6.25 | 1 | > 250 | ≤0.39 | >512 | 25 | 16 | 0.78 | 128 | 164 ± 6 | 0.78 | 2 | 0.39 | 2 | MIC-fold improvement vs. vancomycin [13]: 4; MIC [13]: 0.20 µM
5 | CNC(CC(C)C)C(=O)NC1C(=O)NC(CC(N)=O)C(=O)NC2C(=O)NC3C(=O)NC(C(=O)NC(C(=O)NCC(=O)Nc4ccc(C(=O)NCCCN(C)C)cc4)c4cc(O)cc(O)c4-c4cc3ccc4O)C(O)c3ccc(c(Cl)c3)Oc3cc2cc(c3OC2OC(CO)C(O)C(O)C2OC2CC(C)(N)C(O)C(C)O2)Oc2ccc(cc2Cl)C1O (stereo not drawn) [Vanc-82] | 50 (≈ 85.5 µg/mL) | 8 | >50 | <8 | > 250 | > 250 | >12.5 | <0.5 | > 250 | 6.25 (≈ 10.7 µg/mL) | 32 | >50 | <8 | 3.13 (≈ 5.35 µg/mL) | 32 | > 250 | 1.56 (≈ 2.67 µg/mL) | 1 | 1.56 (≈ 2.67 µg/mL) | 0.5 | MIC-fold improvement vs. vancomycin [13]: 1; MIC [13]: 0.78 µM (≈ 1.33 µg/mL)
